# According to PMC12909347, “Disconnect between in vitro and in vivo efficacy of the MPS1 inhibitor NTRC 0066-0 against glioblastoma” (Cellular Oncology, 2026):
# Columns and labels:
# Type in all cases: in vivo
# [1] = Tolerability of oral dosing schedules in Abcb1a/b;Abcg2-/- mice
# [2] = target: T1, BCRP (Mus musculus, UniProt Q7TMS5); experiment: Brain penetration in Abcg2-/- mice; details: 1 h after 5 mg/kg i.v.
# T1 construct: from tissue; host or cells: blood-brain barrier / brain of FVB mice (WT versus Abcg2-/-)
# T1 sequence (Q7TMS5 1-657): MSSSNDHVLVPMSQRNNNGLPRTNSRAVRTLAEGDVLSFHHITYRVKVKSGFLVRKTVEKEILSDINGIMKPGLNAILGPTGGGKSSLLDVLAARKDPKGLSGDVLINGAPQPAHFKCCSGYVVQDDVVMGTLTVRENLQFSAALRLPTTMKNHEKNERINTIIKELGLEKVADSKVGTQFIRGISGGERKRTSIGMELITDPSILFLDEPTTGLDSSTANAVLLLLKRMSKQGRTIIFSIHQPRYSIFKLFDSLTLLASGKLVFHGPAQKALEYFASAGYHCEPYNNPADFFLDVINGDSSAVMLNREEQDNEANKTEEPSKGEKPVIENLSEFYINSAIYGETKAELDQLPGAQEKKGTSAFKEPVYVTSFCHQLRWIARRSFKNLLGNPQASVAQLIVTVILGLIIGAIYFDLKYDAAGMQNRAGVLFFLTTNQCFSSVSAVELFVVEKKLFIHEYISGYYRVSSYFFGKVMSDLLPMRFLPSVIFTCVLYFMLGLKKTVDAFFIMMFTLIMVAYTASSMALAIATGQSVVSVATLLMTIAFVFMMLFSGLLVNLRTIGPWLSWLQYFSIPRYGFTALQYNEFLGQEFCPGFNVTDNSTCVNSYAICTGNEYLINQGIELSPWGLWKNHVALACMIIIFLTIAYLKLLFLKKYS
# Protocol: (§1) The pharmacokinetics of NTRC 0066-0 were analyzed in wild-type (WT), Abcb1a/b^−/−, Abcg2^−/−, Abcb1a/b^−/−;Abcg2^−/− and Abcb1a/b^−/−;Abcg2^−/−;Abcc4^−/− FVB mice. All knockout mice strains have been developed at the Netherlands Cancer Institute. For i.v. administration, NTRC0066-0 was formulated in DMSO: Cremophor EL: saline (1:1:8 v/v) and injected at a dose of 5 mg/kg. For i.p and oral administration, NTRC0066-0 was administered at 5, 10 or 20 mg/kg as indicated. Serial blood sampling was done by tail vein bleeding at specific time points. At terminal time points, blood was drawn by cardiac puncture followed by tissue collection. Plasma was obtained from whole blood by centrifugation (5 min, 5,000 rpm, 4 °C) and tissues were weighed and homogenized using a FastPrep®-24 (MP-Biomedicals, NY) in 1% (w/v) bovine serum albumin (Sigma-Aldrich) in water.
# (§2) NTRC 0066-0 was extracted from in vitro and in vivo samples using liquid–liquid extraction with diethyl ether. Another MPS-1 inhibitor, Compound 5 (Cpd-5), was added to the samples as an internal standard. The dried organic phase was reconstituted in 30% methanol in water (v/v). Samples were measured using an LC-MS/MS system comprising an UltiMate 3000 LC Systems (Dionex, Sunnyvale, CA) and an API 4000 mass spectrometer (Sciex, Framingham, MA). […]
# [3] = target: T2, MRP4 (Mus musculus, UniProt E9Q236); experiment: Brain penetration in Abcb1a/b;Abcg2;Abcc4-/- mice; details: 1 h after 5 mg/kg i.v.
# T2 construct: Abcb1a/b; from tissue; host or cells: blood-brain barrier / brain of FVB mice (Abcb1a/b;Abcg2;Abcc4-/- versus other strains)
# T2 sequence (E9Q236 1-1325): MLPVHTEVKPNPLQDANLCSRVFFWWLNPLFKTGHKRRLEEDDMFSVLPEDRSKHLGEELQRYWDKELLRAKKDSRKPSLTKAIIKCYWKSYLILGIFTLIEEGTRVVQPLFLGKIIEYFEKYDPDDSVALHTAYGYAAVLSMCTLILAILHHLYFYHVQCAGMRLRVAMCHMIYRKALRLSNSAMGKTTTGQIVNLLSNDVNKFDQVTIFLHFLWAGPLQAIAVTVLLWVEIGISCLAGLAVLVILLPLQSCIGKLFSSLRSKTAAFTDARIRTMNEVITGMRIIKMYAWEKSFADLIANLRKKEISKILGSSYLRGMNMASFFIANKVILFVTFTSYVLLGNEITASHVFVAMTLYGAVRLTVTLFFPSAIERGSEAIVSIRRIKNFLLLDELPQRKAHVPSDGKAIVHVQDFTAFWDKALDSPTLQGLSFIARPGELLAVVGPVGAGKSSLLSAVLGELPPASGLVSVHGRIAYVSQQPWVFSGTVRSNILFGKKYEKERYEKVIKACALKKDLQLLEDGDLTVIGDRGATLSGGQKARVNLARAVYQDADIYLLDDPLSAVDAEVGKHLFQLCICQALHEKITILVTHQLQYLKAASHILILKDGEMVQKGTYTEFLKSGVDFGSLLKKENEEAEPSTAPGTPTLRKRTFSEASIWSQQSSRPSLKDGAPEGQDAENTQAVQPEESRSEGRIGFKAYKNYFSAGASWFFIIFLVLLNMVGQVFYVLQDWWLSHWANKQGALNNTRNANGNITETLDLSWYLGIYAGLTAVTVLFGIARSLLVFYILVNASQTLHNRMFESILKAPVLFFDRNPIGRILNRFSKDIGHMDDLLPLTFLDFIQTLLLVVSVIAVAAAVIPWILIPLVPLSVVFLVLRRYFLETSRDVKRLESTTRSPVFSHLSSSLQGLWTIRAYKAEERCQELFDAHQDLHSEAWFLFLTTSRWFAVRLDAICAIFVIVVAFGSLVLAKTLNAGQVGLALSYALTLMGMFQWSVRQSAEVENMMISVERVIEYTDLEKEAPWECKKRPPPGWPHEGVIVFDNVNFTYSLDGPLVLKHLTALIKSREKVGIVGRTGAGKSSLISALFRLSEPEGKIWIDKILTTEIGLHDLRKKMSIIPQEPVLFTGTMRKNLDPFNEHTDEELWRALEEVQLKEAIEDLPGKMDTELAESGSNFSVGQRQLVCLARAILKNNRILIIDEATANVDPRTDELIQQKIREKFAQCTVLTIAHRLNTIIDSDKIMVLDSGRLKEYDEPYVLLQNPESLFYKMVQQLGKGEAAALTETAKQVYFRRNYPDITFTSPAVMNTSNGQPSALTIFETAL
# Protocol: as §1, §2
structure (smiles),measurement,setting,value
CCc1cccc(CC)c1NC(=O)c1ccn2c1CCc1cnc(Nc3ccc(N4CCN(C)CC4)cc3OC)nc1-2 [NTRC 0066-0],Tolerability of schedule,"[1]; 5 mg/kg p.o. morning + 10 mg/kg p.o. about 8 h later, 7 consecutive days",could safely administer
same,Tolerability of schedule,[1]; 20 mg/kg p.o. every other day for 11 days (q.2d.x11d),could safely be given
same,Plasma and brain concentrations compared to WT mice,[2],no differences
same,Brain concentration compared to Abcb1a/b-/- mice,[3],did not display further increased
